Test results taken from ChEMBL document CHEMBL4138123, “Design, synthesis and biological evaluation of novel pyrazolochalcones as potential modulators of PI3K/Akt/mTOR pathway and inducers of apoptosis in breast cancer cells” (Eur J Med Chem, 2017).

Legend:
Format in all cases: functional
[1] = test system: CCRF-CEM; experiment: Cytotoxicity against human CCRF-CEM cells assessed as growth inhibition after 48 hrs by sulforhodamine B assay
[2] = test system: HL-60(TB); experiment: Cytotoxicity against human HL-60(TB) cells assessed as growth inhibition after 48 hrs by sulforhodamine B assay; conditions: HL-60, 48 h
[3] = test system: NCI-H23; experiment: Cytotoxicity against human NCI-H23 cells assessed as growth inhibition after 48 hrs by sulforhodamine B assay; conditions: NCI-H23, 48 h; for CC50: read-out: LC50 (the source's name)
[4] = test system: COLO 205; experiment: Cytotoxicity against human COLO205 cells assessed as growth inhibition after 48 hrs by sulforhodamine B assay; conditions: COLO 205, 48 h
[5] = test system: KM12; experiment: Cytotoxicity against human KM12 cells assessed as growth inhibition after 48 hrs by sulforhodamine B assay; conditions: KM12, 48 h
[6] = test system: IGROV-1; experiment: Cytotoxicity against human IGROV1 cells assessed as growth inhibition after 48 hrs by sulforhodamine B assay; conditions: IGROV-1, 48 h
[7] = test system: NCI/ADR-RES; experiment: Cytotoxicity against human NCI/ADR-RES cells assessed as growth inhibition after 48 hrs by sulforhodamine B assay
[8] = test system: MDA-MB-231; experiment: Cytotoxicity against human MDA-MB-231 cells assessed as growth inhibition after 48 hrs by sulforhodamine B assay; conditions: MDA-MB-231, 48 h
[9] = test system: MDA-MB-468; experiment: Cytotoxicity against human MDA-MB-468 cells assessed as growth inhibition after 48 hrs by sulforhodamine B assay; conditions: MDA-MB-468, 48 h
[10] = test system: SK-MEL-5; experiment: Cytotoxicity against human SK-MEL-5 cells assessed as cell growth at 0.01 uM after 48 hrs by sulforhodamine B assay relative to control; conditions: SK-MEL-5, 48 h, read-out: Activity
[11] = test system: Malme-3M; experiment: Cytotoxicity against human MALME-3M cells assessed as cell growth at 0.01 uM after 48 hrs by sulforhodamine B assay relative to control; conditions: read-out: Activity
[12] = test system: COLO 205; experiment: Cytotoxicity against human COLO205 cells assessed as cell growth at 0.01 uM after 48 hrs by sulforhodamine B assay relative to control; conditions: COLO 205, 48 h, read-out: Activity
[13] = test system: NCI-H322M; experiment: Cytotoxicity against human NCI-H322M cells assessed as cell growth at 0.01 uM after 48 hrs by sulforhodamine B assay relative to control; conditions: read-out: Activity
[14] = test system: SR; experiment: Cytotoxicity against human SR cells assessed as cell growth at 0.01 uM after 48 hrs by sulforhodamine B assay relative to control; conditions: read-out: Activity
[15] = test system: UO-31; experiment: Cytotoxicity against human UO31 cells assessed as cell growth at 0.01 uM after 48 hrs by sulforhodamine B assay relative to control; conditions: UO-31, 48 h, read-out: Activity
[16] = test system: BT-549; experiment: Cytotoxicity against human BT549 cells assessed as cell growth at 0.01 uM after 48 hrs by sulforhodamine B assay relative to control; conditions: BT-549, 48 h, read-out: Activity
[17] = test system: HOP-62; experiment: Cytotoxicity against human HOP62 cells assessed as cell growth at 0.1 uM after 48 hrs by sulforhodamine B assay relative to control; conditions: HOP-62, 48 h, read-out: Activity
[18] = test system: NCI-H226; experiment: Cytotoxicity against human NCI-H226 cells assessed as cell growth at 0.1 uM after 48 hrs by sulforhodamine B assay relative to control; conditions: NCI-H226, 48 h, read-out: Activity
[19] = test system: MDA-MB-435; experiment: Cytotoxicity against human MDA-MB-435 cells assessed as cell growth at 0.1 uM after 48 hrs by sulforhodamine B assay relative to control; conditions: MDA-MB-435, 48 h, read-out: Activity
[20] = test system: IGROV-1; experiment: Cytotoxicity against human IGROV1 cells assessed as cell growth at 0.1 uM after 48 hrs by sulforhodamine B assay relative to control; conditions: IGROV-1, 48 h, read-out: Activity
[21] = test system: A498; experiment: Cytotoxicity against human A498 cells assessed as cell growth at 0.1 uM after 48 hrs by sulforhodamine B assay relative to control; conditions: A498, 48 h, read-out: Activity
[22] = test system: UO-31; experiment: Cytotoxicity against human UO31 cells assessed as cell growth at 0.1 uM after 48 hrs by sulforhodamine B assay relative to control; conditions: UO-31, 48 h, read-out: Activity
[23] = test system: HOP-62; experiment: Cytotoxicity against human HOP62 cells assessed as cell growth at 1 uM after 48 hrs by sulforhodamine B assay relative to control; conditions: HOP-62, 48 h, read-out: Activity
[24] = test system: NCI-H226; experiment: Cytotoxicity against human NCI-H226 cells assessed as cell growth at 1 uM after 48 hrs by sulforhodamine B assay relative to control; conditions: NCI-H226, 48 h, read-out: Activity
[25] = test system: HT-29; experiment: Cytotoxicity against human HT-29 cells assessed as cell growth at 1 uM after 48 hrs by sulforhodamine B assay relative to control; conditions: HT-29, 48 h, read-out: Activity
[26] = test system: U-251; experiment: Cytotoxicity against human U251 cells assessed as cell growth at 1 uM after 48 hrs by sulforhodamine B assay relative to control; conditions: U-251, 48 h, read-out: Activity
[27] = test system: OVCAR-4; experiment: Cytotoxicity against human OVCAR4 cells assessed as cell growth at 1 uM after 48 hrs by sulforhodamine B assay relative to control; conditions: OVCAR-4, 48 h, read-out: Activity
[28] = test system: ACHN; experiment: Cytotoxicity against human ACHN cells assessed as cell growth at 1 uM after 48 hrs by sulforhodamine B assay relative to control; conditions: read-out: Activity
[29] = test system: Hs-578T; experiment: Cytotoxicity against human Hs 578T cells assessed as cell growth at 1 uM after 48 hrs by sulforhodamine B assay relative to control; conditions: read-out: Activity
[30] = test system: HT-29; experiment: Cytotoxicity against human HT-29 cells assessed as cell growth at 10 uM after 48 hrs by sulforhodamine B assay relative to control; conditions: HT-29, 48 h, read-out: Activity
[31] = test system: M14; experiment: Cytotoxicity against human M14 cells assessed as cell growth at 10 uM after 48 hrs by sulforhodamine B assay relative to control; conditions: M14, 48 h, read-out: Activity
[32] = test system: NCI/ADR-RES; experiment: Cytotoxicity against human NCI/ADR-RES cells assessed as cell growth at 10 uM after 48 hrs by sulforhodamine B assay relative to control; conditions: read-out: Activity
[33] = test system: HT-29; experiment: Cytotoxicity against human HT-29 cells assessed as cell growth at 100 uM after 48 hrs by sulforhodamine B assay relative to control; conditions: HT-29, 48 h, read-out: Activity
[34] = test system: UO-31; experiment: Cytotoxicity against human UO31 cells assessed as cell growth at 100 uM after 48 hrs by sulforhodamine B assay relative to control; conditions: UO-31, 48 h, read-out: Activity
[35] = test system: MCF7; experiment: Cytotoxicity against human MCF7 cells assessed as cell growth at 100 uM after 48 hrs by sulforhodamine B assay relative to control; conditions: MCF7, 48 h, read-out: Activity
[36] = test system: PC-3; experiment: Cytotoxicity against human PC3 cells assessed as cell growth at 10 uM after 48 hrs by sulforhodamine B assay relative to control; conditions: PC-3, 48 h, read-out: Activity

COc1ccc(-c2cc(/C=C/C(=O)c3ccc(N)cc3)[nH]n2)cc1
GI50 [1]: 1.32 µM
LC50 (concentration killing 50% of cells) [1]: 36.1 µM
TGI [1]: 4.91 µM
GI50 [2]: 1.43 µM
LC50 [2]: > 100 µM
TGI [2]: 7.71 µM
GI50 [3]: 3.22 µM
TGI [3]: 13.1 µM
CC50 [3]: 68.4 µM
GI50 [4]: 1.85 µM
LC50 [4]: 6.41 µM
TGI [4]: 3.45 µM
GI50 [5]: 1.54 µM
LC50 [5]: 7.61 µM
TGI [5]: 3.42 µM
GI50 [6]: 2.27 µM
LC50 [6]: 43.3 µM
TGI [6]: 6.45 µM
GI50 [7]: 2.86 µM
LC50 [7]: > 100 µM
TGI [7]: 15.5 µM
GI50 [8]: 2.14 µM
LC50 [8]: 55.5 µM
TGI [8]: 8.29 µM
GI50 [9]: 0.43 µM
LC50 [9]: 7.45 µM
TGI [9]: 2.09 µM
growth at 0.01 µM [10]: 97%
growth at 0.01 µM [11]: 93%
growth at 0.01 µM [12]: 97%
growth at 0.01 µM [13]: 95%
growth at 0.01 µM [14]: 94%
growth at 0.01 µM [15]: 90%
growth at 0.01 µM [16]: 92%
growth at 0.1 µM [17]: 100%
growth at 0.1 µM [18]: 84%
growth at 0.1 µM [19]: 103%
growth at 0.1 µM [20]: 91%
growth at 0.1 µM [21]: 97%
growth at 0.1 µM [22]: 82%
growth at 1 µM [23]: 102%
growth at 1 µM [24]: 86%
growth at 1 µM [25]: 97%
growth at 1 µM [26]: 65%
growth at 1 µM [27]: 52%
growth at 1 µM [28]: 71%
growth at 1 µM [29]: 93%
growth at 10 µM [30]: -10%
growth at 10 µM [31]: -24%
growth at 10 µM [32]: 9%
growth at 100 µM [33]: -56%
growth at 100 µM [34]: -87%
growth at 100 µM [35]: -68%

COc1ccc(-c2cc(/C=C/C(=O)c3ccc4c(c3)OCO4)[nH]n2)cc1OC
GI50 [1]: 0.36 µM
GI50 [2]: 2.76 µM
GI50 [3]: 2.25 µM
GI50 [4]: 1.55 µM
GI50 [5]: 0.62 µM
GI50 [6]: 3.13 µM
GI50 [7]: 3.43 µM
GI50 [8]: 1.88 µM
GI50 [9]: 1.09 µM

COc1ccc(C(=O)/C=C/c2cc(-c3ccc4c(c3)OCO4)n[nH]2)cc1OC
LC50 (concentration killing 50% of cells) [1]: > 100 µM
TGI [1]: 9.58 µM
LC50 [2]: > 100 µM
TGI [2]: 11.8 µM
TGI [3]: 19.6 µM
CC50 [3]: 66 µM
LC50 [4]: 45.9 µM
TGI [4]: 14 µM
LC50 [5]: 34.9 µM
TGI [5]: 9.48 µM
LC50 [6]: 68 µM
TGI [6]: 9.2 µM
GI50 [8]: 2.44 µM
LC50 [8]: 31.7 µM
TGI [8]: 7.39 µM
GI50 [9]: 1.86 µM
LC50 [9]: 13.5 µM
TGI [9]: 4.52 µM
growth at 0.01 µM [10]: 96%
growth at 0.01 µM [11]: 93%
growth at 0.01 µM [12]: 102%
growth at 0.01 µM [13]: 93%
growth at 0.01 µM [14]: 90%
growth at 0.01 µM [15]: 86%
growth at 0.01 µM [16]: 102%
growth at 0.1 µM [17]: 99%
growth at 0.1 µM [18]: 93%
growth at 0.1 µM [19]: 99%
growth at 0.1 µM [20]: 93%
growth at 0.1 µM [21]: 80%
growth at 0.1 µM [22]: 81%
growth at 1 µM [23]: 87%
growth at 1 µM [24]: 106%
growth at 1 µM [25]: 93%
growth at 1 µM [26]: 69%
growth at 1 µM [27]: 65%
growth at 1 µM [28]: 94%
growth at 1 µM [29]: 94%
growth at 10 µM [30]: 2%
growth at 10 µM [31]: 38%
growth at 10 µM [36]: 16%
growth at 100 µM [33]: -44%
growth at 100 µM [34]: -93%
growth at 100 µM [35]: -48%

COc1cc(-c2cc(/C=C/C(=O)c3ccc(Cl)c(Cl)c3)[nH]n2)cc(OC)c1OC
LC50 (concentration killing 50% of cells) [1]: > 100 µM
TGI [1]: 23.5 µM
LC50 [2]: > 100 µM
TGI [2]: 36.7 µM
TGI [3]: > 100 µM
CC50 [3]: > 100 µM
LC50 [4]: > 100 µM
TGI [4]: 15.8 µM
LC50 [5]: > 100 µM
TGI [5]: > 100 µM
LC50 [6]: > 100 µM
TGI [6]: > 100 µM
LC50 [7]: > 100 µM
TGI [7]: > 100 µM
LC50 [8]: > 100 µM
TGI [8]: > 100 µM
GI50 [9]: 1.98 µM
LC50 [9]: > 100 µM
TGI [9]: 7.22 µM
growth at 0.01 µM [10]: 98%
growth at 0.01 µM [11]: 94%
growth at 0.01 µM [12]: 103%
growth at 0.01 µM [13]: 89%
growth at 0.01 µM [14]: 104%
growth at 0.01 µM [15]: 85%
growth at 0.01 µM [16]: 89%
growth at 0.1 µM [17]: 101%
growth at 0.1 µM [18]: 103%
growth at 0.1 µM [19]: 96%
growth at 0.1 µM [20]: 98%
growth at 0.1 µM [21]: 89%
growth at 0.1 µM [22]: 85%
growth at 1 µM [23]: 68%
growth at 1 µM [24]: 96%
growth at 1 µM [25]: 96%
growth at 1 µM [26]: 87%
growth at 1 µM [27]: 107%
growth at 1 µM [28]: 101%
growth at 1 µM [29]: 104%
growth at 10 µM [30]: 53%
growth at 10 µM [31]: 61%
growth at 10 µM [32]: 51%
growth at 10 µM [36]: 39%
growth at 100 µM [33]: 3%
growth at 100 µM [34]: 18%
